Measured values as given in US20240415855A1, “COMPOSITIONS AND METHODS RELATING TO USE OF PHOSPHATIDIC ACID TO RESCUE FETAL ALCOHOL SPECTRUM DISORDER (FASD) GROWTH RESTRICTION AND BLOOD VESSEL CONSTRICTION” (Wayne State University, priority 2023, published 2024).
Where two headings read alike, the source gives them in different places.

Tests used:
[1] = tested on: uterine artery; test: Pressure arteriography of uterine artery (ACh-induced vasodilation) after in vivo treatment; set-up: species or system rat; conditions: ethanol/alcohol group vs control, p<0.05
Description: (§1) The dams were then assigned into experimental groups. […] Rats were euthanized by decapitation while under isoflurane anesthesia.
Following euthanasia, the entirety of the uterus was excised and immediately placed in ice-cold HBS for pressure arteriography experiments. Uterine artery functional assessments were performed following uterine artery isolation using established procedures. Briefly, the uterine horn was transferred to a 200 mm petri dish with solidified Sylgard to facilitate tissue isolation and cleaning in ice-cold HBS. A 3-5 mm segment of the primary uterine artery was dissected between arterial bifurcations from the approximate center of the uterine horn. Surrounding adipose and connective tissues were carefully removed from the uterine artery segment. […] Intramural pressure was then increased to mimic in vivo pressures at 90 mm Hg, at which pressure the ACh concentration responses were measured. Vessels were pre-constricted with 10^−6 M Tbx as determined previously. […] The above treatment was followed by the administration of three-fold increasing concentrations of ACh from 10^−10 M up to 10^−5 M. Vascular response was recorded by established methods using Ionwizard software version 6.6 (Ionoptix LLC, Westwood, MA, USA) for at least 5 min, or until arterial diameter stabilized.

[2] = tested on: pregnant Sprague-Dawley rats; test: Maternal and fetal growth assessment in FASD rat model (binge alcohol with or without in vivo PA)
Description: (§2) Molecule administered: PA (#840857C, Avanti Polar Lipids) was air-dried under a gentle stream of nitrogen gas and resuspended in 1% BSA to make a 10^−2 M stock solution. PA was administered to pregnant rats in vivo at a dose of 4.5 mg/kg/day for alcohol dose of 4.5 g/kg body weight from gestation day 4 through 10 and 6 mg/kg/day for alcohol dose of 6 g/kg body weight from gestation day 11 through 19 or 20.
(§3) Timed pregnant Sprague-Dawley rats (8-12 weeks old), were purchased from Charles River (Wilmington, MA, USA) and arrived on GD 4, where they were housed in a temperature-controlled room (23° C.) with a 12:12 h light-dark cycle. The dams were acclimatized for a day before weighing and handling. The dams were then assigned into experimental groups. Four in vivo treatment groups were utilized: (1) a nutritional pair-fed control group (control), that served as a control for nutrition and for the gavage procedure. To control for the calories derived from alcohol, these pair-fed control rats were administered isocaloric maltose-dextrin (once-daily) via orogastric gavage. […] (3) An in vivo phosphatidic acid (PA) control group (control PA), to control for the in vivo PA supplement. […] (4) A binge alcohol in vivo PA group (alcohol PA), that received alcohol via intragastric gavage similar to those in the binge alcohol group along with the PA supplement. Daily PA doses were calculated based on the dam's weight at the time of administration (PA (μL)=0.2×dam weight (g) GD 5-10; PA (μL)=0.2105×weight (g) GD 11-19). Intake of food in the alcohol treatment group was measured, and an equivalent amount of food was given to the pair-fed control dams to account for additional nutritional factors. Rats were euthanized by decapitation while under isoflurane anesthesia.
(§4) Maternal weights and fetal weights were measured on GD 20-21, one day after the last treatment on GD 19-20, following euthanasia.
(§5) Maternal weight and fetal weight (unit of analysis is a dam or litter) were analyzed using two-way mixed ANOVA with alcohol as the between factor and PA as the within factor. Normality was tested using the Shapiro-Wilk normality test where appropriate. […] The data were considered significant if the p value was <0.05.

[3] = tested on: endothelial nitric oxide synthase (eNOS); test: Uterine artery eNOS immunoblotting / immunofluorescence after in vivo treatment; set-up: species or system rat; conditions: for Total eNOS levels in uterine artery: ethanol and/or PA treatment; for P-Ser1177 eNOS level in uterine artery: ethanol/alcohol-exposed vs control, P<0.05
Description: as §1
Immunoblotting was performed using standard laboratory procedures. Following euthanasia, the uterine arteries were isolated by separating the vein, and cleaning the adipose tissues in HBS, before flash freezing for immunoblot analysis. Tissues were first homogenized using a 4° C. cooled bead homogenizer (Benchmark Scientific, Sayreville, NJ, USA) and then quantified using BCA protein quantification assay. Next, 20 μg of the uterine artery sample protein was then loaded on to 4-20% mini-protean TGX gels (Bio-rad, Hercules, CA, USA). Following transfer to a PVDF membrane, P-Ser1177 eNOS (Novus Biologicals, Centennial, CO, USA), total eNOS (BD Biosciences, Franklin Lakes, NJ, USA), and β-Actin (Sigma Aldrich, St. Louis, MI, USA) were probed. Densitometry analysis was performed using AzureSpot (Azure Biosystems, Dublin, CA, USA).
Immunofluorescence assessments were performed using previously published protocols. In brief, maternal uterine arteries were sectioned at 8 μm with a Leica cryostat (CM1860, Leica Biosystems, Buffalo Grove, IL, USA). Sections were subsequently fixed with ice-cold methanol (30 min, −20° C.), and then rinsed in PBS, and incubated in 10% normal serum (60 min). This was followed by incubation with (1:100; p1177-eNOS; Cell Signaling and 1:250; total eNOS, BD Biosciences) primary antibody overnight at 4° C. in a humidified chamber. The sections were then incubated with goat anti-rabbit IgG secondary antibody (Alexa Fluor 488, Invitrogen, Carlsbad, CA, USA), for 1 h at room temperature. Digital images were captured with an Olympus BX63 […] that was equipped with U-HGLGPS fluorescent light source, ORCA-Flash 4.0 LT camera, Hamamatsu Photonics (Hamamatsu, Japan), and Olympus cellSens Dimension software Version 3.2 (Olympus, Tokyo, Japan).

[4] = tested on: pregnant Sprague-Dawley rats; conditions: rat, in vivo
Description: as §2, §3, §4, §5

[5] = fetuses from ethanol-fed rats, P<0.05

Compound | Acetylcholine-induced uterine artery relaxation (vasodilation) [1] | Acetylcholine-induced uterine artery relaxation (vasodilation) ([1]; listed as alcohol) | Maternal body weights ([2]; GD 20-21, control, alcohol, control PA, alcohol PA groups) | Average litter size ([2]; alcohol group) | Mean fetal weights ([2]; alcohol group vs control, p<0.0001) | Crown-rump length lower than pair-fed control [2, 5] | Mean fetal weight lower than pair-fed control [2, 5] | Total eNOS levels in uterine artery [3] | Total eNOS levels in uterine artery ([3]; listed as alcohol) | P-Ser1177 eNOS level in uterine artery [3] | P-Ser1177 eNOS level in uterine artery ([3]; listed as Alcohol) | P-Ser1177 eNOS level in uterine artery ([3]; listed as Ethanol) | Maternal body weights [4]
CCO [ethanol] | significantly impaired | significantly decreased | did not differ among the treatment groups | 10.83±1.33 | significantly lower | ~8% | ~9% | Neither ethanol treatment nor PA affected total eNOS levels | Neither alcohol nor PA had any effect on total eNOS | decreases | significantly reduced | significantly reduced | 
L-α-phosphatidic acid [PA] |  |  |  |  |  |  |  |  |  |  |  |  | did not differ among the treatment groups
